According to patent US7402311B2, “Composition and method for treating non-bacterial cystitis” (priority 2003, dated 2008):

Experiments:
[1] = tested on: chronic interstitial cystitis syndromes; conditions: patients taking quercetin alone; cited from earlier work
[2] = tested on: patients without positive bacterial cultures localized to the prostatic fluid; assay: Example II: double blind study using 30 patients; assay type: in vivo
Protocol: A double blind study using 30 patients without positive bacterial cultures localized to the prostatic fluid are enrolled in a double blind study. Seventeen of the patients receive a composition comprised of quercetin in amount of 500 milligrams, bromelin in an amount of 10 milligrams, and papain in an amount of 10 milligrams as the active ingredients thereof. After a randomized study is completed, an additional fifteen patients are treated in an open label study with only the […]. […] The mean symptom score improves from 21.0 to 13.1 in the group receiving quercetin, but from 20.2 to 18.8 in the placebo group. This represents an improvement of 35%. In those patients which receive only the quercetin, without the papain and bromelin, with obtainable secretions, the white blood cell count in the decreases from 16.8 to 5.3, versus a decrease from 13.1 to 8.3 in the placebo patients.

[3] = Tests of bioavailability / transmural intestinal absorption of quercetin; assay type: in vivo; conditions: quercetin alone

In the case of `O=c1c(O)c(-c2ccc(O)c(O)c2)oc2cc(O)cc(O)c12` [quercetin], the pain [1] is listed as “controlled”, the severe urinary symptoms [1] is listed as “least likely to improve” and the symptomatic response [1] is listed as “significant”. The “improvement of mean symptom score” value ([2]; double blind study) was 35%, the “mean symptom score, after treatment” value ([2]; double blind study, end value) was 13.1 and the “mean symptom score, before treatment” value ([2]; double blind study, start value) was 21.0. The “white blood cell count, after treatment” value ([2]; patients with obtainable secretions, end value) was 5.3, the “white blood cell count, before treatment” value ([2]; patients with obtainable secretions, start value) was 16.8 and the bioavailability [3] was “does not have a high bioavailability”. The transmural intestinal absorption [3] was “relatively low”.
